Experimental data taken from US4705805A, “Antithrombotic agent” (priority 1978, dated 1987).

Experiments:
Type in all cases: cell-based
[1] = tested on: rabbit blood platelets (platelet rich plasma), collagen-induced aggregation; assay: inhibition of platelet aggregation in rabbit platelet rich plasma (in vitro), induced by collagen; conditions: rabbit PRP; for inhibition at 30 µg/mL / inhibition at 100 µg/mL / inhibition at 1 µg/mL / inhibition at 3 µg/mL / inhibition at 10 µg/mL: Oryctolagus cuniculus, Platelet, read-out: percentage of inhibition, collagen; for inhibition at 30 µg/mL: 30 μg/ml; for inhibition at 1 µg/mL: 1 μg/ml; for inhibition at 3 µg/mL: 3 μg/ml; for inhibition at 10 µg/mL: 10 μg/ml
Description: (§1) In this example, the inhibition of platelet aggregation in rabbit platelet rich plasma (in vitro) is tested.
(§2) In this test, 9 vol. of blood is sampled from the carotid artery of rabbits (2 to 2.5 Kg) and placed in a silicon-coated flask containing 1 vol. of 3.8% sodium citrate. The thus obtained blood is centrifuged at 1,000 rpm for 15 minutes to obtain platelet rich plasma (referred to as "PRP" hereinafter). The aggregation of blood platelets is observed using an aggregometer (made by Bryston Co.) and the degree of aggregation after the addition of aggregation promoting substances is measured by nephelometry, i.e., through increase in light transmission.
(§3) The PRP (0.9 ml) is placed in a silicon-coated cuvett of the aggregometer. Then, 0.05 ml of physiological saline solution containing various concentrations of test reagents or control reagents is added and the mixture is allowed to stand for one minute. Compounds promoting aggregation are then added and the absorbancy of the solution is measured and the percent inhibition of aggregation is calculated according to the following equation: [formula] C: Transmittancy showing the maximum percent aggregation by physiological saline solution
(§4) D: Transmittancy showing the maximum percent aggregation by sample
(§5) Test for the inhibition of platelet aggregation induced by ADP, collagen and thrombin.

[2] = tested on: rabbit blood platelets (platelet rich plasma), ADP-induced aggregation; assay: inhibition of platelet aggregation in rabbit platelet rich plasma (in vitro), induced by ADP; conditions: rabbit PRP, ADP 10^-5 M; for inhibition at 30 µg/mL / inhibition at 100 µg/mL / inhibition at 3 µg/mL / inhibition at 10 µg/mL: Oryctolagus cuniculus, Platelet, read-out: percentage of inhibition, ADP; for inhibition at 30 µg/mL: 30 μg/ml; for inhibition at 3 µg/mL: 3 μg/ml; for inhibition at 10 µg/mL: 10 μg/ml
Description: as §1, §2, §3, §4, §5

[3] = tested on: human platelet rich plasma, ADP-induced aggregation; assay: inhibition of platelet aggregation in human platelet rich plasma, induced by ADP; conditions: human PRP, read-out: percentage inhibition, ADP
Description: as §2, §3, §4
(§6) In this example, the same procedures are repeated as in Example 10 except that human platelet rich plasma is used in place of rabbit platelet rich plasma.

[4] = tested on: human platelet rich plasma, collagen-induced aggregation; assay: inhibition of platelet aggregation in human platelet rich plasma, induced by collagen; conditions: human PRP, read-out: percentage inhibition, collagen
Description: as §2, §3, §4, §6

Row | Compound | inhibition at 30 µg/mL [1] | inhibition at 100 µg/mL ([1]; 100 μg/ml) | inhibition at 30 µg/mL [2] | inhibition at 100 µg/mL ([2]; 100 μg/ml) | inhibition at 10 µg/mL [1] | further results
1 | CCCCCCCCCCCCCCCC(=O)OCCNC(=O)c1ccccc1SSc1ccccc1C(=O)NCCOC(=O)CCCCCCCCCCCCCCC [Compound XX, 2,2'-dithiobis(N-2-hexadecanoyloxyethylbenzamide)] | 0% | 33% | 0% | 23% | – | –
2 | 2,2'-dithiobis(N-naphthylbenzamide) [Compound XXXIX] | – | – | – | – | – | percentage of inhibition, collagen ([1]; 100 μg/ml): 12%; percentage of inhibition, ADP ([2]; 100 μg/ml): 25%
3 | CN1CCN(C(=O)c2ccccc2SSc2ccccc2C(=O)N2CCN(C)CC2)CC1 [Compound XXXII, 2,2'-dithiobis(N'-methylbenzpiperazide)] | 100% | – | 100% | – | 90% | inhibition at 30 µg/mL ([3]; 30 μg/ml): 15%; inhibition at 100 µg/mL ([3]; 100 μg/ml): 60%; inhibition at 1 µg/mL [1]: 2%; inhibition at 3 µg/mL [1]: 59%; inhibition at 3 µg/mL [2]: 26%; inhibition at 10 µg/mL [2]: 62%; inhibition at 30 µg/mL ([4]; 30 μg/ml): 34%; inhibition at 100 µg/mL ([4]; 100 μg/ml): 100%
4 | O=C(c1ccccc1SSc1ccccc1C(=O)N1CCN(C(c2ccccc2)c2ccccc2)CC1)N1CCN(C(c2ccccc2)c2ccccc2)CC1 [Compound XXXIII, 2,2'-dithiobis(N'-diphenylmethylbenzpiperazide)] | 22% | – | 16% | – | – | –
5 | CC(CCc1ccccc1)NC(=O)c1ccccc1SSc1ccccc1C(=O)NC(C)CCc1ccccc1 (stereo not drawn) [Compound XIV, 2,2'-dithiobis[N-(1-methyl-3-phenylpropyl)]benzamide] | 24% | – | 28% | – | – | –
6 | CCOCCCNC(=O)c1ccccc1SSc1ccccc1C(=O)NCCCOCC [Compound XXXV, 2,2'-dithiobis(N-3-ethyloxypropylbenzamide)] | 31% | 100% | – | 35% | 15% | –
7 | CCCCCCCCCCCCNC(=O)c1ccccc1SSc1ccccc1C(=O)NCCCCCCCCCCCC [Compound VI, 2,2'-dithiobis(N-dodecylbenzamide)] | 0% | 89% | 0% | 35% | – | –
8 | O=C(NCCCCO)c1ccccc1SSc1ccccc1C(=O)NCCCCO [Compound XVII, 2,2'-dithiobis(N-4-hydroxybutylbenzamide)] | 100% | 100% | 45% | 100% | 97% | inhibition at 3 µg/mL [1]: 0%
9 | O=C(NCC(O)c1ccccc1)c1ccccc1SSc1ccccc1C(=O)NCC(O)c1ccccc1 (stereo not drawn) [Compound XXXVIII, 2,2'-dithiobis(N-2-hydroxy-2-phenylethylbenzamide)] | – | 19% | – | 12% | – | –
10 | O=C(Nc1cccc(Cl)c1)c1ccccc1SSc1ccccc1C(=O)Nc1cccc(Cl)c1 [Compound XI, 2,2'-dithiobis(N-m-chlorophenylbenzamide)] | 99% | 100% | 29% | 96% | 0% | inhibition at 10 µg/mL [2]: 0%
11 | O=C(c1ccccc1SSc1ccccc1C(=O)N(c1ccccc1)c1ccccc1)N(c1ccccc1)c1ccccc1 [Compound XIII, 2,2'-dithiobis(N-diphenylbenzamide)] | 12.2% | 47% | 16% | 60% | – | –
12 | O=C(NCCCO)c1ccccc1SSc1ccccc1C(=O)NCCCO [Compound XVI, 2,2'-dithiobis(N-3-hydroxypropylbenzamide)] | – | 100% | – | 88% | 78% | inhibition at 1 µg/mL [1]: 8%; inhibition at 3 µg/mL [1]: 50%; inhibition at 3 µg/mL [2]: 42%; inhibition at 10 µg/mL [2]: 64%
